We go through 13 molecules from patent US10973906B2, “Therapeutic peptides and vaccines” (priority 2005, dated 2021).

The EC50 is the concentration that produces a half-maximal response. The low end stands for an effect from little substance, the high end for a need for much substance.

B1: MIP-1β: CCR5 selective chemokine ligand (protein)
chain: APMGSDPPTACCFSYTARKLPRNFVVDYYETSSLCSQPAVVFQTKRSKQVCADPSESWVQEYVYDLELN

Where a SMILES comes first, the peptide text is derived from it.

The target of the first experiment is T1, CCR5 (Homo sapiens, UniProt P51681).
T1 construct: expressed in transfected cells; host or cells: ChfTh-CCR5 expressing cells (so in the source)
T1 sequence (P51681 whole entry): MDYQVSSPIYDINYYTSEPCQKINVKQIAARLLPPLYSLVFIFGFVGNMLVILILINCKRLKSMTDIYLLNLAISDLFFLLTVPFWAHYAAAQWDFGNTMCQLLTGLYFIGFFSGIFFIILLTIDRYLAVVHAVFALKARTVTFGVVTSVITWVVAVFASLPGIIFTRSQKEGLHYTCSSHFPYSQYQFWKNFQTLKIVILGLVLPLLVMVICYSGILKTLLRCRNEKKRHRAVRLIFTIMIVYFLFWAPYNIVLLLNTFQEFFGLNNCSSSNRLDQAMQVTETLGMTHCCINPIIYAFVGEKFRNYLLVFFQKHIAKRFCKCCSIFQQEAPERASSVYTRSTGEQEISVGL
Assay: not given
The experiment is classed as binding. To be noted: 10 nM. Here is the method: (§1) The antiviral assays are described in detail in the prior art (Ruff et al., 2001, Antiviral Res, 52, 63-75), which is hereby incorporated by reference, and will be here described only briefly.
(§2) We prepared a novel FITC-labeled tracer from soluble gp120 proteins (25 μg/ml) using a Fluorescent Protein labeling kit (Roche Diagnostics GmBh). Binding assays were performed in binding buffer containing 50mM HEPES (Gibco), pH=7.4, 5 mM MgCl2, 1 mM CaCl2.6H20 (Sigma), 5% BSA (Sigma) and 0.1% NaN3, final volume 100 μl. Binding was carried out for 1 h at 37° C. in 96-well filter plates (Millipore) using several CCR5 expressing lines, as indicated. Unbound labeled proteins were removed by rapid vacuum filtration and washing using a 96-well plate manifold. Filters were counted with a fluorescent plate reader (Hewlett Packard) at 495/530 nm. Non-specific binding was determined in the absence of sCD4 and was subtracted from the gp120-FITC binding in presence of 100 nM sCD4 (total binding).
These studies are illustrated in FIG. 4. Total specific binding was defined as the difference in binding of FITIC-gp120 with or without added sCD4 (100 nM).
Data shown (panels A-C) are the mean and […] of three experiments, each with triplicate determinations. Analyses were performed by PRISM.
With B1, the “inhibition of binding of gp120 proteins Bal and CM235” value is on record as “inhibited”.

The same experiment, now with this note: gp120BaL/sCD4, Cf2Th/synR5 cells.
Consider B1, for which the “inhibition of binding of gp120BaL/sCD4 to CCR5” value is “completely inhibited”.

The next experiment has as its target T1, CCR5. The experiment in a line: biochemical.
Conditions: not given
It counts as binding. On the procedure:
as §1, §2
Turning to `N=C(N)NCCC[C@H](NC(=O)[C@H](Cc1ccc(O)cc1)NC(=O)[C@H](CCCNC(=N)N)NC(=O)[C@H](CC(N)=O)NC(=O)[C@@H](N)CC(N)=O)C(=O)O` [NNRYR] (H-NNRYR-OH), the EC50 was 0.2 nM.
As to `N=C(N)NCCC[C@H](NC(=O)[C@H](Cc1ccc(O)cc1)NC(=O)[C@H](CCC(=O)O)NC(=O)[C@H](CO)NC(=O)[C@@H](N)CC(N)=O)C(=O)O` [NSEYR] (H-NSEYR-OH), the EC50 came to 0.08 nM.
The same measure, in the same setting: the same measure for `NC(=O)C[C@H](NC(=O)[C@H](CO)NC(=O)[C@@H](N)CC(N)=O)C(=O)N[C@@H](Cc1ccc(O)cc1)C(=O)N[C@@H](CO)C(=O)O` [NSNYS] (H-NSNYS-OH): 0.5 nM; for `N=C(N)NCCC[C@H](NC(=O)[C@H](Cc1ccc(O)cc1)NC(=O)[C@H](CO)NC(=O)[C@H](CO)NC(=O)[C@@H](N)CC(N)=O)C(=O)O` [NSSYR] (H-NSSYR-OH): 0.04 nM; for `C[C@@H](O)[C@H](NC(=O)[C@H](Cc1ccc(O)cc1)NC(=O)[C@H](CO)NC(=O)[C@H](CO)NC(=O)[C@@H](N)CC(N)=O)C(=O)O` [NSSYT] (H-NSSYT-OH): 0.2 nM.
`C[C@@H](O)[C@H](NC(=O)[C@@H](N)CC(N)=O)C(=O)N[C@@H](CO)C(=O)N[C@@H](Cc1ccc(O)cc1)C(=O)N[C@@H](CCCNC(=N)N)C(=O)O` [NTSYR] (H-NTSYR-OH) gave an EC50 of 0.1 nM.
`N=C(N)NCCC[C@H](NC(=O)[C@H](Cc1ccc(O)cc1)NC(=O)[C@H](CCC(=O)O)NC(=O)[C@H](CO)NC(=O)[C@@H](N)CO)C(=O)O` [SSEYR] (H-SSEYR-OH) had an EC50 of 0.3 nM.
Same read-out and setting: the same measure for `CC[C@H](C)[C@H](NC(=O)[C@@H](N)[C@@H](C)O)C(=O)N[C@@H](CO)C(=O)N[C@@H](Cc1ccc(O)cc1)C(=O)N[C@@H](CCCNC(=N)N)C(=O)O` [TISYR] (H-TISYR-OH): 0.4 nM; for `C[C@@H](O)[C@H](N)C(=O)N[C@@H](CO)C(=O)N[C@@H](CC(N)=O)C(=O)N[C@@H](Cc1ccc(O)cc1)C(=O)N[C@@H](CO)C(=O)O` [TSNYS] (H-TSNYS-OH): 0.2 nM; for `C[C@@H](O)[C@H](N)C(=O)N[C@H](C(=O)N[C@@H](CO)C(=O)N[C@@H](Cc1ccc(O)cc1)C(=O)N[C@@H](CCCNC(=N)N)C(=O)O)[C@@H](C)O` [TTSYR] (H-TTSYR-OH): 0.1 nM.
For the molecule `C[C@@H](O)[C@H](N)C(=O)N[C@H](C(=O)N[C@@H](CO)C(=O)N[C@@H](Cc1ccc(O)cc1)C(=O)N[C@H](C(=O)O)[C@@H](C)O)[C@@H](C)O` [TTSYT] (H-TTSYT-OH), a half-maximal response (EC50) required 0.05 nM.
On the same count and under the same terms, as for `N=C(N)NCCC[C@H](NC(=O)[C@H](Cc1ccc(O)cc1)NC(=O)[C@H](CO)NC(=O)[C@H](CO)NC(=O)[C@@H](N)Cc1ccc(O)cc1)C(=O)O` [YSSYR] (H-YSSYR-OH), the figure is 0.6 nM.
